We go through 1 substance from US20070009503A1, “Antibiotic, Compositions Containing the Antibiotic, and Methods for Administering the Antibiotic and/or Said Compositions to Livestock” (priority 2004, published 2007).

The test system of the experiment is Lactobacillus sakei JCM1157. Description: Growth inhibition zones on MRS agar plates containing protease Umamizyme G, overlaid with indicator strain. Particulars: Example 2, protease 0 U/mL. The format is cell-based. As for the experimental part: The lactic acid bacterium Weissella sp. AJ110263 (FERM P-19577), isolated from fermented milk matsoon, and the lactic acid bacteria Pediococcus pentosaceus JCM5885, Pediococcus pentosaceus JCM5890, Lactobacillus plantarum JCM1149, and Lactobacillus salivarius JCM1231, obtained from type cultures, were precultured and cultured on MRS liquid medium (Table 1 above). The culture temperature was 30° C. for Weissella sp. and 37° C. for the other strains. The above lactic acid bacteria were inoculated onto and cultured for 24 hours on MRS agar medium plates to which “Umamizyme G”, a protease derived from Aspergillus, had been added in quantities of 0 U/mL (none added), 200 U/ML, and 400 U/mL. In culturing, 100 mL of MRS medium was added to a 500 mL Sakaguchi flask, […] was inoculated, and the medium was shaken 100 times/min.
These plates were cultured for 24 hours at 30° C., resulting in the formation of growth inhibition zones in the indicator strains (Table 10 below).
Lactococcus lactis NCD0497 (a bacterium producing nisin A) and Lactococcus lactis NCIMB702054 (a bacterium producing nisin Z) were separately cultured in MRS liquid medium at 30° C. In the same manner as in Example 1, antibiotic evaluation was conducted using Lactobacillus sakei strain JCM1157 as an indicator strain. […]

Where no end group is shown, it is not given here.

In the case of “Nisin A: nisin A 1,000 IU/mL solution made by ICN Biomedical, spotted without bacterial strains (ITSISLCTPGCKTGALMGCNMKTATCHCSIHVSK; also: lantibiotic, lanthionine bridges and dehydro residues not placed; UniProt P13068 24-57, looked up)”, the “diameters of the proliferation inhibition zones” value is 30.
